Data as given in patent US12150942B2, “Cerdulatinib for treating myeloma” (Alexion Pharmaceuticals, Inc., priority 2015, dated 2024).
Entries after “also recorded” stand apart in the source; their conditions may differ. Blank lines part the entries; values can stand above or below the molecule they belong to.

Key:
[1] = tested on: multiple myeloma cell lines (LP1, OPM2, MOLP1, RPMI8226, U266B1, NCIH929); assay: Cell proliferation (EdU as indicator) in multiple myeloma cell lines; format: cell-based; settings: FGFR3 positive and FGFR3 negative MM cell lines
Procedure: (§1) Six multiple myeloma cell lines were tested in this example for the expression level of p90RSK. The cell lines included LP1, OPM2, MOLP1, RPMI8226, U266B1, and NCIH929. Beta-actin was used as control, and the expression levels of FGF receptor 3 (FGFR3), phospho-S380 RSK. and RSK1/RSK2/RSK3 were also measured.
(§2) Cerdulatinib was tested with same cell lines as used in Example 1. […] Also like BI-D1870, there was no relationship between the activity of cerdulatinib and the status of FGFR3.

[2] = tested on: multiple myeloma cell lines (LP1, OPM2, MOLP1, RPMI8226, U266B1, NCIH929); assay: Caspase3 activation (apoptosis) in multiple myeloma cell lines; format: cell-based; settings: FGFR3 positive and FGFR3 negative MM cell lines; BI-D1870 at 1.2 μM, 2.5 μM, 5 μM
Procedure: as §1
A p90RSK inhibitor, BI-D1870 (see, e.g., Sapkota et al., Biochem J. 2007, 401(Pt 1): 29-38), was added to the medium for each cell line at three difference concentrations. 1.2 μM, 2.5 μM, and 5 μM.
as §2

[3] = tested on: serum markers of inflammation (B2M, CRP); assay: Serum markers of inflammation in dosed patients; format: in vivo, human; settings: once daily 40-100 mg
Procedure: (§3) Methods: This experiment was a 3+3 dose escalation study with 28-day cycles and doses studied ranging from 15 mg to 100 mg QD, and up to 45 mg BID. PK, PD, and safety were monitored. Clinical response was assessed by standard criteria. The level of inhibition of SYK and JAK was determined by multiple whole blood assays measuring signaling via BCR, IL2, IL4, IL6, and GM-CSF. Serum markers of tumor burden-CCL3, CCL4, and other markers of inflammation-B2M, CRP, were also measured.

[4] = Pharmacokinetics in 3+3 dose escalation study; format: in vivo, human
Procedure: as §3

SYK and JAK signaling = assay: Whole blood assays of SYK and JAK signaling (BCR, IL2, IL4, IL6, GM-CSF); format: in vivo, human; settings: 45 mg BID; steady-state Cmin; peripheral blood assays
Procedure: as §3

[5] = tested on: patients with CLL/SLL or B cell NHL; assay: Clinical response by standard criteria in dose escalation study; format: in vivo, human; settings: 28-day cycles
Procedure: as §3
(§4) Results: As of Jan. 7, 2016, 41 patients (pt) with CLL/SLL or B cell NHL were dosed. Median age was 67 years (range 23-85) and median prior therapies (tx) was 3 (range 1-8). […] The patient with grade 3 AST had tumor progression to the liver. The pancreatitis at 45 mg BID was considered at DLT and the cohort is expanding to approximately 6 patients.

[6] = tested on: patients with CLL/SLL or B cell NHL; assay: Safety in 3+3 dose escalation study; format: in vivo, human
Procedure: as §3, §4

[7] = tested on: AML (Acute Myeloid Leukemia) cell lines; assay: Cytotoxicity in AML cell lines; format: cell-based; settings: four different AML cell lines; compared with Ruxolitinib and Comp A
Procedure: The cytotoxicity of cerdulatinib in AML (Acute Myeloid Leukemia) was tested in four different cell lines.

[8] = tested on: DLBCL, MCL, Burkitt's lymphoma, ALL, MM and AML cells; assay: Cytotoxicity (IC50) across cancer types; format: cell-based
From the text: The cytotoxicity of cerdulatinib was also compared to Comp A in other types of cancer cells.

SMILES: CC(C)CCN1c2nc(Nc3cc(F)c(O)c(F)c3)ncc2N(C)C(=O)C1C (stereo not shown) [BI-D1870, reference compound]
inhibition of cell proliferation (EdU as indicator) [1]: dose-dependently inhibited cell proliferation
activation of Caspase3 expression (indicator of apoptosis) [2]: dose-dependently activated the expression of Caspase3

steady-state Cmin ([4]; 45 mg BID): approximately 1.5 μM
average steady state Cmin ([4]; 40-100 mg dose range, once daily): 0.70 ± 0.20 µM
Cmax ([4]; human, in vivo, 40-100 mg dose range, once daily, read-out: average steady state Cmax): 1.38 µM
half-life ([4]; human, in vivo, patients, once daily dosing): 12 to 16 h
SMILES: CCS(=O)(=O)N1CCN(c2ccc(Nc3ncc(C(N)=O)c(NC4CC4)n3)cc2)CC1 [cerdulatinib, 4-(cyclopropylamino)-2-(4-(4-(ethylsulfonyl)piperazin-1-yl)phenylamino)pyrimidine-5-carboxamide]
inhibition of cell proliferation (EdU as indicator) [1]: dose-dependently inhibited cell proliferation
inhibition of serum markers of inflammation [3]: Significant inhibition
change in systemic exposure ([4]; 45 mg BID relative to previous dose levels): approximate doubling in exposure; also recorded: doubled
solubility / dissolution ([4]; inferred from plateau of exposure over 40-100 mg): low pH solubility appeared to limit dissolution
inhibition of SYK and JAK (SYK and JAK signaling): complete inhibition
time at which responses occurred [5]: 2 cycles of tx
tolerability ([6]; 15 mg to 100 mg QD, up to 45 mg BID, 41 patients): well tolerated
treatment emergent AEs of ≥ grade 3 deemed related to study drug ([6]; 30 mg): neutropenia (n=2), anemia (n=1), and pneumocystis pneumonia (grade 5, n=1)
treatment emergent AEs of ≥ grade 3 deemed related to study drug ([6]; 45 mg): anemia, AST increase, hypotension, thrombocytopenia (n=1 for each), and fatigue (n=2)
treatment emergent AEs of ≥ grade 3 deemed related to study drug ([6]; 45 mg BID, considered DLT): pancreatitis (n=1)
treatment emergent AEs of ≥ grade 3 deemed related to study drug ([6]; 50 mg): anemia, neutropenia, abdominal pain, pneumonia, and fatigue (n=1 for each)
treatment emergent AEs of ≥ grade 3 deemed related to study drug ([6]; 65 mg): diarrhea and fatigue (n=1 for each)
treatment emergent AEs of ≥ grade 3 deemed related to study drug ([6]; 100 mg): nausea (n=1)
cytotoxicity in AML cells [7]: more active than Ruxolitinib, a JAK inhibitor, and Comp A; also recorded: active in killing AML cells
activation of Caspase3 expression (indicator of apoptosis) [2]: activated apoptosis; also recorded: dose-dependently activated caspase3 expression
IC50 (cytotoxicity) compared to Comp A [8]: more potent than Comp A
